Patent publication US11883381B2, “ASH1L inhibitors and methods of treatment therewith” (The Regents of the University of Michigan, priority 2016, dated 2024)

Key:
[1] = target: T1, ASH1L SET-BAH construct (amino acids 2069-2833) (Homo sapiens, UniProt Q9NR48); assay: ASH1L histone methyltransferase assay (KMTase assay); format: biochemical; conditions: Table 6 section headings give the IC50 class; assay not given
T1 construct: ASH1L SET-BAH construct (amino acids 2069-2833) at 0.25 μM was incubated with 0.7 μM SAM; MOCR fusion (TEV-cleavable); made in house; host or cells: E. coli BL21(DE3) T1R
Method: ASH1L Histone Methyltransferase Assay (KMTase Assay)
The reactions were stopped by spotting 5 μL of the reaction mixture on P81 cellulose squares (Reaction Biology). The P81 squares were dried for 45 min and washed five times with 50 mM sodium bicarbonate (pH 9.0), 10 min per wash. The P81 squares were then dried for 1 h, added to 10 mL of Ultima Gold scintillation cocktail (PerkinElmer), and analyzed using a Beckman scintillation counter.

[2] = system: MOLM13 cells expressing MLL-AF9; assay: Cell viability (MTT) assay, MOLM13 cells; format: cell-based, human; conditions: 4 days of treatment
Method: (§1) MA9 (MLL-AF9 transformed), HM2 (Hoxa9/Meis1 transformed) murine bone marrow cells (BMC), MV4;11 and MOL13 human leukemia cells were plated at 1×10^5 cells/ml in 24-well plates, treated with 0.25% DMSO or compounds and cultured at 37° C. for 12 days. Every four days, the volume corresponding to 1×10^5 cells of DMSO-treated cells was spun down and resuspended in fresh media with fresh compound. At day 0 and each four day interval, 100 μl aliquots of the cell suspension were transferred to 96-well plates in quadruplicates. The quadruplicate samples were incubated for 4 days at 37° C., and then an MTT cell proliferation assay kit (Roche) was used to measure viable cells. Absorbance was read at 570 nm using a PHERAstar (BMG) microplate reader.

MLL-AF9 cells = assay: Differentiation (cytospin/Wright-Giemsa staining), MLL-AF9 cells; format: cell-based, mouse
Method: Cytospin/Wrigtht-Giemsa Staining
1×10^5 MA9 mouse BMCs treated with compounds were harvested and placed in a Shandon EZ Single Cytofunnel (Thermo Fisher). Samples were centrifuged at 600 rpm for 5 min. The slides were air dried before staining with a Hema-3 kit (Thermo Fisher).

[3] = system: Hoxa cluster, Meis1 genes in control cell line HM-2; assay: Quantitative RT-PCR of MLL fusion target genes, HM-2 control cell line; format: cell-based, mouse; conditions: normalized to β-actin
Method: (§2) Total RNA was extracted from cells using the RNeasy mini kit (QIAGEN), and then 100-2000 ng of total RNA was reverse transcribed using the High Capacity cDNA Reverse Transcription Kit (Applied Biosystems) according to the manufacturer's protocol. Real-time PCR was performed using a CFX96 Real-Time PCR Detection System (Biorad). TaqMan Gene Expression Master Mix and TaqMan Gene Expression Assays for mouse Gapdh (Mm99999915), mouse Ash1l (Mm00467322), mouse Hoxa7 (Mm00657963), mouse Hoxa9 (Mm00439364), mouse Hoxa10 (Mm00433966), mouse Meis1 (Mm00487664), and mouse B-actin (Mm00607939) were purchased from Thermo Fisher. Relative quantification of each gene transcript was carried out using the ΔΔCt method as described in the Biorad Real-Time PCR Applications Guide.

[4] = system: murine bone marrow cells transformed with MLL-AF9 (MA9); assay: Cell viability (MTT) assay, MLL-AF9 transformed murine bone marrow cells; format: cell-based; conditions: 8 days of treatment
Method: as §1

[5] = system: MV4;11 cells (expressing MLL-AF4); assay: Cell viability (MTT) assay, MV4;11 cells; format: cell-based, human; conditions: 4 days of treatment
Method: as §1

[6] = system: MLL fusion target genes (Hoxa cluster, Meis1) in MLL-AF9 cells; assay: Quantitative RT-PCR of MLL fusion target genes, MLL-AF9 cells; format: cell-based, mouse; conditions: for Expression of MLL fusion target genes (Hoxa cluster, Meis1): MLL-AF9 cells, normalized to β-actin
Method: as §2

[7] = system: HM-2 (Hoxa9/Meis1) negative control cell line; assay: Differentiation, HM-2 control cell line; format: cell-based, murine; conditions: negative control cell line HM-2
ASH1L = target: T2, ASH1L (Homo sapiens, UniProt Q9NR48); assay: ASH1L degradation in HeLa cells; format: cell-based; conditions: 0.05-50 μM
T2 construct: endogenous in cells; host or cells: HeLa

[8] = system: human acute leukemia cells with various MLL translocations; assay: Cell proliferation in a panel of human acute leukemia cells; format: cell-based
Method: as §1

Compound NC(=S)c1cccc(-c2cn(CC(CF)CF)c3cc(CNC(=O)CC(F)(F)F)ccc23)c1 [Compound 206] has an IC50 [1] of under 20 µM.

With NC(=S)c1cccc(-c2cn(CC(CF)CF)c3cc(C(O)CC(F)(F)F)ccc23)c1 (stereo not drawn) [Compound 202] the IC50 [1] was under 20 µM.

With NC(=S)c1cccc(-c2cn(C(C(F)(F)F)C(F)(F)F)c3cc(CO)ccc23)c1 [Compound 207] the IC50 [1] was under 20 µM.

For NC(=S)c1cccc(-c2cn(CC(CF)CF)c3cc(N)ccc23)c1 [Compound 126, 3-(6-amino-1-(3-fluoro-2-(fluoromethyl)propyl)-1H-indol-3-yl)benzothioamide], the “Inhibition of cell proliferation” value [2] was “Inhibition of cell proliferation”, the Differentiation of cells (MLL-AF9 cells) was “induces differentiation” and the “Expression of MLL fusion target genes (Hoxa cluster, Meis1)” value (shortened to “Expression … (Hoxa cluster, Meis1)”) [3] was “has no effect on expression”. The “Inhibition of cell proliferation” value [4] was “Inhibition of cell proliferation”, the “Inhibition of cell proliferation” value [5] was “Inhibition of cell proliferation” and the “Expression … (Hoxa cluster, Meis1)” value [6] was “downregulates expression”. The Differentiation of cells [7] was “but not in negative control cell line HM-2”.

NC(=O)NCc1ccc2c(-c3cccc(C(N)=S)c3)cn(CC(CF)CF)c2c1 [Compound 204] showed an IC50 [1] of under 20 µM.

With NC(=S)c1cccc(-c2cn(CC(CF)CF)c3cc(NC(=O)CCOCCOCCOCCOc4cccc5c4C(=O)N(C4CCC(=O)NC4=O)C5=O)ccc23)c1 (stereo not drawn) [Compound 301] the IC50 [1] was under 20 µM and the “Degradation of ASH1L” value (ASH1L) was “Degradation of ASH1L induced”.

For NC(=S)c1cccc(-c2cn(CCCC(F)(F)F)c3cc(-c4ccn[nH]4)ccc23)c1 [Compound 260], the Cell proliferation [8] was “inhibits cell proliferation” and the “Expression of MLL fusion target genes (Hoxa9, Hoxa10 and Meis1)” value ([6]; MLL-AF9 transformed murine leukemia cells) was “downregulates expression”.

With NC(=S)c1ccc(O)c(-c2cccc3[nH]ncc23)c1 [Compound 35] the IC50 [1] was over 100 µM.

In the case of NC(=S)c1cccc(-c2cn(CC(CF)CF)c3cc(NC(=O)c4cc[nH]c4)ccc23)c1 [Compound 137], the IC50 [1] is reported as under 20 µM.

NC(=S)c1cccc(-c2cccc3[nH]ccc23)c1 [Compound 34] gave an IC50 [1] of over 100 µM.

With NC(=S)c1cccc(-c2c[nH]c3ccc(O)cc23)c1 [Compound 69] the “Expression … (Hoxa cluster, Meis1)” value [3] was “does not affect gene expression” and the “Expression … (Hoxa cluster, Meis1)” value [6] was “does not affect gene expression”.

For NC(=S)c1cccc(-c2cn(CCCC(F)(F)F)c3cc(CNCc4ccccc4)ccc23)c1 [Compound 120], the IC50 [1] was under 20 µM.

NC(=S)c1cccc(-c2cn(CC(CO)(C(F)F)C(F)F)c3cc(C(O)CF)ccc23)c1 (stereo not drawn) [Compound 209] was tested, and the IC50 [1] was under 20 µM.

With NC(=S)c1cccc(-c2cn(-c3ccc[nH]3)c3cc(CO)ccc23)c1 [Compound 220] the IC50 [1] was under 20 µM.

Work on NC(=S)c1cccc(-c2cn(CC(CO)(C(F)F)C(F)F)c3cc(CO)ccc23)c1 [Compound 200] yielded an IC50 [1] of under 20 µM.

With NC(=S)c1cccc(-c2cn(CC(CF)CF)c3cc(CNC(=O)c4cnc[nH]4)ccc23)c1 [Compound 203] the IC50 [1] was under 20 µM.

CC(=O)Nc1ccc2c(-c3cccc(C(N)=S)c3)cn(CC(CF)CF)c2c1 [Compound 136] gave an IC50 [1] of under 20 µM.

NC(=S)c1cccc(-c2c[nH]c3ccccc23)c1 [Compound 89] showed an IC50 [1] of 20 to 100 µM.
